Test results: patent US12077503B2, “Substituted cyclic amides and their use as herbicides” (FMC CORPORATION, priority 2015, dated 2024)

Key:
Format in all cases: in vivo
[1] = test system: ragweed (common ragweed, Ambrosia elatior); test: Test A preemergence; details: Ambrosia artemisiifolia, pre-emergence, 240 h; for pest or weed control at 125 g/ha: 125 g ai/ha, preemergence, visual rating after approx. 10 d, 0 to 100 scale where 0 is no effect and 100 is complete control; for pest or weed control at 125 g/ha / pest or weed control at 31 g/ha: read-out: Plant response rating, Ragweed; for pest or weed control at 500 g/ha: 500 g ai/ha, visual injury vs untreated controls after approximately 10 d, read-out: Ragweed plant response rating (0 to 100 scale where 0 is no effect and 100 is complete control); for pest or weed control at 500 g/ha / pest or weed control at 31 g/ha: Preemergence; for pest or weed control at 31 g/ha: 31 g ai/ha, 0 to 100 scale (0 no effect, 100 complete control)
Outline: (§1)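 Preemergence directed soil spray on seeded pots, or postemergence application to plants 2–10 cm, one- to two-leaf. Solvent mixture non-phytotoxic, with surfactant. Scored ~10 d later, visually, 0–100 vs untreated.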

[2] = test system: pigweed (Amaranthus retroflexus); test: Test A preemergence; details: Amaranthus retroflexus, pre-emergence, 240 h; for pest or weed control at 125 g/ha: 125 g ai/ha, preemergence, visual rating after approx. 10 d, 0 to 100 scale where 0 is no effect and 100 is complete control; for pest or weed control at 125 g/ha / pest or weed control at 31 g/ha: read-out: Plant response rating, Pigweed; for pest or weed control at 500 g/ha: 500 g ai/ha, visual injury vs untreated controls after approximately 10 d, read-out: Pigweed plant response rating (0 to 100 scale where 0 is no effect and 100 is complete control); for pest or weed control at 500 g/ha / pest or weed control at 31 g/ha: Preemergence; for pest or weed control at 31 g/ha: 31 g ai/ha, 0 to 100 scale (0 no effect, 100 complete control)
[3] = test system: barnyardgrass (Echinochloa crus-galli); test: Test A preemergence; details: Echinochloa crus-galli, pre-emergence, 240 h; for pest or weed control at 125 g/ha: 125 g ai/ha, preemergence, visual rating after approx. 10 d, 0 to 100 scale where 0 is no effect and 100 is complete control; for pest or weed control at 125 g/ha / pest or weed control at 31 g/ha: read-out: Plant response rating, Barnyardgrass; for pest or weed control at 500 g/ha: 500 g ai/ha, visual injury vs untreated controls after approximately 10 d, read-out: Barnyardgrass plant response rating (0 to 100 scale where 0 is no effect and 100 is complete control); for pest or weed control at 500 g/ha / pest or weed control at 31 g/ha: Preemergence; for pest or weed control at 31 g/ha: 31 g ai/ha, 0 to 100 scale (0 no effect, 100 complete control)
Outline: as §1

[4] = test system: giant foxtail (Setaria faberii); test: Test A preemergence; details: Setaria faberi, pre-emergence, 240 h; for pest or weed control at 125 g/ha: 125 g ai/ha, preemergence, visual rating after approx. 10 d, 0 to 100 scale where 0 is no effect and 100 is complete control; for pest or weed control at 125 g/ha / pest or weed control at 31 g/ha: read-out: Plant response rating, Foxtail, Giant; for pest or weed control at 500 g/ha: 500 g ai/ha, visual injury vs untreated controls after approximately 10 d, read-out: Foxtail, Giant plant response rating (0 to 100 scale where 0 is no effect and 100 is complete control); for pest or weed control at 500 g/ha / pest or weed control at 31 g/ha: Preemergence; for pest or weed control at 31 g/ha: 31 g ai/ha, 0 to 100 scale (0 no effect, 100 complete control)
Outline: as §1

[5] = test system: ryegrass, Italian (Italian ryegrass, Lolium multiflorum); test: Test A preemergence; details: Lolium multiflorum, pre-emergence, 240 h; for pest or weed control at 125 g/ha: 125 g ai/ha, preemergence, visual rating after approx. 10 d, 0 to 100 scale where 0 is no effect and 100 is complete control; for pest or weed control at 125 g/ha / pest or weed control at 31 g/ha: read-out: Plant response rating, Ryegrass, Italian; for pest or weed control at 500 g/ha: 500 g ai/ha, visual injury vs untreated controls after approximately 10 d, read-out: Ryegrass, Italian plant response rating (0 to 100 scale where 0 is no effect and 100 is complete control); for pest or weed control at 500 g/ha / pest or weed control at 31 g/ha: Preemergence; for pest or weed control at 31 g/ha: 31 g ai/ha, 0 to 100 scale (0 no effect, 100 complete control)
Outline: as §1

[6] = test system: Kochia (Kochia scoparia); test: Test A preemergence; details: Bassia scoparia, pre-emergence, 240 h; for pest or weed control at 125 g/ha: 125 g ai/ha, preemergence, visual rating after approx. 10 d, 0 to 100 scale where 0 is no effect and 100 is complete control; for pest or weed control at 125 g/ha / pest or weed control at 31 g/ha: read-out: Plant response rating, Kochia; for pest or weed control at 500 g/ha: 500 g ai/ha, visual injury vs untreated controls after approximately 10 d, read-out: Kochia plant response rating (0 to 100 scale where 0 is no effect and 100 is complete control); for pest or weed control at 500 g/ha / pest or weed control at 31 g/ha: Preemergence; for pest or weed control at 31 g/ha: 31 g ai/ha, 0 to 100 scale (0 no effect, 100 complete control)
Outline: as §1

[7] = test system: pigweed (Amaranthus retroflexus); test: Test A postemergence; details: Amaranthus retroflexus, post-emergence, 240 h, read-out: Plant response rating, Pigweed; for pest or weed control at 125 g/ha: 125 g ai/ha, postemergence, visual injury after approximately 10 d, 0 to 100 scale (0 no effect, 100 complete control); for pest or weed control at 31 g/ha: Postemergence, 31 g ai/ha, visual injury after approx. 10 d, 0 to 100 scale, 0 no effect, 100 complete control
Outline: as §1

[8] = test system: giant foxtail (Setaria faberii); test: Test A postemergence; details: Setaria faberi, post-emergence, 240 h, read-out: Plant response rating, Foxtail, Giant; for pest or weed control at 125 g/ha: 125 g ai/ha, postemergence, visual injury after approximately 10 d, 0 to 100 scale (0 no effect, 100 complete control); for pest or weed control at 31 g/ha: Postemergence, 31 g ai/ha, visual injury after approx. 10 d, 0 to 100 scale, 0 no effect, 100 complete control
Outline: as §1

[9] = test system: ryegrass, Italian (Italian ryegrass, Lolium multiflorum); test: Test A postemergence; details: Lolium multiflorum, post-emergence, 240 h, read-out: Plant response rating, Ryegrass, Italian; for pest or weed control at 125 g/ha: 125 g ai/ha, postemergence, visual injury after approximately 10 d, 0 to 100 scale (0 no effect, 100 complete control); for pest or weed control at 31 g/ha: Postemergence, 31 g ai/ha, visual injury after approx. 10 d, 0 to 100 scale, 0 no effect, 100 complete control
Outline: as §1

[10] = test system: Kochia (Kochia scoparia); test: Test A postemergence; details: Bassia scoparia, post-emergence, 240 h, read-out: Plant response rating, Kochia; for pest or weed control at 125 g/ha: 125 g ai/ha, postemergence, visual injury after approximately 10 d, 0 to 100 scale (0 no effect, 100 complete control); for pest or weed control at 31 g/ha: Postemergence, 31 g ai/ha, visual injury after approx. 10 d, 0 to 100 scale, 0 no effect, 100 complete control
Outline: as §1

[11] = test system: sedge, umbrella (small-flower umbrella sedge, Cyperus difformis); test: Test B flooded paddy test; details: Cyperus difformis, Flood, 250 g ai/ha; scale of 0 to 100 where 0 is no effect and 100 is complete control; read-out: Sedge, Umbrella plant response rating
Outline: (§2)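 Greenhouse paddy pots with 2-leaf stage plants received compound by direct addition to floodwater 3 cm deep, kept at that level. Scored visually at 13–15 d versus controls (0 no effect; 100 complete control).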

[12] = test system: rice (Oryra sativa); test: Test B flooded paddy test; details: Oryza sativa, Flood, 250 g ai/ha; scale of 0 to 100 where 0 is no effect and 100 is complete control; read-out: Rice plant response rating
Outline: as §2

[13] = test system: ducksalad (Heteranthera limosa); test: Test B flooded paddy test; details: Heteranthera limosa, Flood, 250 g ai/ha; scale of 0 to 100 where 0 is no effect and 100 is complete control; read-out: Ducksalad plant response rating
Outline: as §2

[14] = test system: barnyardgrass (Echinochloa crus-galli); test: Test B flooded paddy test; details: Echinochloa crus-galli, Flood, 250 g ai/ha; scale of 0 to 100 where 0 is no effect and 100 is complete control; read-out: Barnyardgrass plant response rating
Outline: as §2

| SMILES | pest or weed control at 125 g/ha [1] | pest or weed control at 500 g/ha [1] | pest or weed control at 125 g/ha [2] | pest or weed control at 500 g/ha [2] | pest or weed control at 125 g/ha [3] | pest or weed control at 500 g/ha [3] | pest or weed control at 125 g/ha [4] | pest or weed control at 500 g/ha [4] | pest or weed control at 125 g/ha [5] | pest or weed control at 500 g/ha [5] | pest or weed control at 125 g/ha [6] | pest or weed control at 500 g/ha [6] | pest or weed control at 125 g/ha [7] | pest or weed control at 125 g/ha [8] | pest or weed control at 125 g/ha [9] | pest or weed control at 125 g/ha [10] | pest or weed control at 250 g/ha [11] | pest or weed control at 250 g/ha [12] | pest or weed control at 250 g/ha [13] | pest or weed control at 250 g/ha [14] | further results |
| --- | --- | --- | --- | --- | --- | --- | --- | --- | --- | --- | --- | --- | --- | --- | --- | --- | --- | --- | --- | --- | --- |
| CN1C[C@H](c2nccs2)[C@@H](C(=O)Nc2cccc(F)c2F)C1=O [Compound 774] | 0% | 0% | 0% | 0% | 0% | 0% | 0% | 0% | 0% | 0% | 0% | 0% | 0% | 0% | 0% | 0% | 0% | 0% | 0% | 0% | – |
| O=C1NC[C@H](c2ccc3c(c2)CCO3)[C@H]1C(=O)Nc1ccccc1F [Compound 786] | 0% | 0% | 0% | 0% | 80% | 90% | 90% | 90% | 0% | 0% | 0% | 0% | 0% | 40% | 0% | 0% | 40% | 0% | 70% | 0% | – |
| CN1C[C@H](c2ccc(OC(F)F)cc2)[C@@H](C(=O)Nc2ccccc2S(C)(=O)=O)C1=O [Compound 788] | 80% | 90% | 80% | 90% | 90% | 90% | 90% | 100% | 0% | 40% | 80% | 80% | 60% | 70% | 20% | 40% | 0% | 0% | 60% | 20% | – |
| Cc1cc([C@H]2CN(C)C(=O)[C@@H]2C(=O)Nc2cccc(F)c2F)cc(C)c1C [Compound 796] | 0% | – | 40% | – | 90% | – | 90% | – | 20% | – | 20% | – | 20% | 90% | 40% | 0% | 0% | 40% | 90% | 70% | pest or weed control at 31 g/ha [1]: 0%; pest or weed control at 31 g/ha [2]: 20%; pest or weed control at 31 g/ha [3]: 70%; pest or weed control at 31 g/ha [4]: 90%; pest or weed control at 31 g/ha [5]: 0%; pest or weed control at 31 g/ha [6]: 0%; pest or weed control at 31 g/ha [7]: 0%; pest or weed control at 31 g/ha [8]: 80%; pest or weed control at 31 g/ha [9]: 0%; pest or weed control at 31 g/ha [10]: 0% |
| Cc1cc([C@H]2CN(C)C(=O)[C@@H]2C(=O)Nc2ccccc2F)cc(C)c1C [Compound 797] | 0% | – | 20% | – | 90% | – | 90% | – | 50% | – | 20% | – | 20% | 90% | 40% | 0% | 0% | 25% | 90% | 90% | pest or weed control at 31 g/ha [1]: 0%; pest or weed control at 31 g/ha [2]: 0%; pest or weed control at 31 g/ha [3]: 80%; pest or weed control at 31 g/ha [4]: 90%; pest or weed control at 31 g/ha [5]: 0%; pest or weed control at 31 g/ha [6]: 0%; pest or weed control at 31 g/ha [7]: 0%; pest or weed control at 31 g/ha [8]: 80%; pest or weed control at 31 g/ha [9]: 0%; pest or weed control at 31 g/ha [10]: 0% |
